Values of other authors in patent US20230293541A1, “METHODS OF TREATING OPHTHALMIC CONDITIONS WITH ENHANCED PENETRATION COMPOSITIONS OF BIMATOPROST AND TIMOLOL” (Somerset Therapeutics, LLC, priority 2022, published 2023).

What was measured:
[1] = three-month comparison, glaucoma and ocular hypertension
[2] = patients starting on prostaglandin monotherapy
[3] = under certain conditions
[4] = in comparison to latanoprost and travoprost

API stability [3] | corneal penetration [4] | Structure (SMILES) | mean pressures (IOP) versus latanoprost [1] | rate of adjunctive medication use [2] [%]
remain stable | poor corneal penetration | CCNC(=O)CCC/C=C\C[C@@H]1[C@@H](/C=C/[C@@H](O)CCc2ccccc2)[C@H](O)C[C@@H]1O [bimatoprost, (Z)-7-[(1R, 2R, 3R, 5S)-3,5-Dihydroxy-2-[(1E, 3S)˜3-hydroxy-5-phenyl˜1-pentenyl]cyclopentyl]˜5-N-ethylheptenamid] | lower mean pressures than latanoprost at every time point studied | 23.2
experiencing degradation | – | CC(C)OC(=O)CCC/C=C\C[C@@H]1[C@@H](CC[C@@H](O)CCc2ccccc2)[C@H](O)C[C@@H]1O [latanoprost] | – | 30.2
experiencing degradation | – | CC(C)OC(=O)CCC/C=C\C[C@@H]1[C@@H](/C=C/[C@@H](O)COc2cccc(C(F)(F)F)c2)[C@H](O)C[C@@H]1O [travoprost] | – | 22.5
